Data taken from patent US20200245616A1, “A Disinfectant Composition with Extended Antimicrobial Effects” (Siamons International Inc., priority 2017, published 2020).

What was measured:
Type in all cases: cell-based
[1] = tested on: Aspergillus niger ATCC 6275; experiment: AOAC Official Method 961.02 Germicidal Spray Method, fungal conidia on glass carriers; details: 10 min contact
Source text: (§1) In this method, a series of glass slides (“carriers”) were inoculated with a representative test organism and the carriers were dried under ambient conditions. The dried organisms on the surface of the carrier were then sequentially treated with the composition of the present disclosure in the form of a spray product and were exposed for a pre-determined exposure time. After exposure, the carriers were sequentially transferred to a liquid subculture medium specifically selected to neutralize the composition of the present disclosure and to recover any surviving test organism. The carriers were incubated and visually examined for the presence or absence of growth. […] Required organisms for a disinfection claim include but are not limited to Staphylococcus aureus, Salmonella choleraesuis and Pseudomonas aeruginosa.
(§2) The conidiospore suspension was macerated in a tissue grinder. The suspension was filtered through sterile cotton to remove the hyphae and hyphal fragments.
(§3) Vortex-mixed the inoculum periodically during inoculation of the carriers. • Immediately spread the inoculum uniformly over the majority of the carrier surface using a sterile loop. […] High volume screening studies were conducted in some cases where only 4 organism-inoculated carriers were treated at specified concentrations of CTAB. Once all of the carriers had been inoculated, the carriers were placed in an incubator at 37° C. for 40 minutes until completely dry.
(§4) • After drying, each carrier was sprayed with the respective disinfection formulae 10 times in 10 seconds at a distance of 30 cm. • Timed the treatment interval. Ten (10) minutes after each carrier had been exposed to the disinfectant, the excess liquid was removed and the carriers were transferred in a sequentially timed fashion into the culture tubes containing 20 ml neutralization broth (Letheen Broth with 0.07% Lecithin /0.5% Tween 80) to neutralize the disinfectant. • After the carriers were deposited in the respective culture tubes, the tubes were recapped and the cultures were thoroughly resuspended. • Incubated all neutralization tubes at 28 ±1° C. for 14 days. • After 14 days, the cultures within the tubes were examined for growth. The percentage of the treated carriers showing growth was recorded.

[2] = tested on: Trichophyton mentagrophytes ATCC 9533; experiment: as above; details: 10 min contact
Source text: as §1, §2, §3, §4

[3] = tested on: Penicillium variable ATCC 32333; experiment: as above; details: 10 min contact
Source text: as §1, §2, §3, §4

[4] = tested on: select bacteria and fungal organisms; experiment: Germicidal spray disinfection, summary over the tested organisms; details: 0.01% QAH in CMC; 10-minute contact time
Description: (§5) All experiments were conducted according to the protocol outlined in AOAC Official Method 961.02 (Germicidal Spray Method), which is a carrier-based method used to evaluate disinfection efficacy of aerosol/pump-based spray products and liquid products for registration with regulatory agencies such as the U.S. EPA and Health Canada.
It was expected that if the CTAB was replaced by QAH's of similar structure that the disinfection of selected bacteria and fungal organisms would be similarly achieved. […] In the case of bacteria testing, the experimental procedure was as outlined in Example 1 for disinfection of bacterial cultures. In the case of fungal organisms, the experimental procedure was as outlined in Example 1 for the preparation of fungal cultures.

[5] = tested on: Staphylococcus aureus ATCC 6538; experiment: AOAC Official Method 961.02 Germicidal Spray Method, bacteria on glass carriers; details: 10 min contact
Source text: as §1
(§6) Method Adapted to the Preparation of Bacteria Cultures from −80° C. Freshly Recovered Stock. […] Added 10 μL of the thawed stock to a tube containing 10 mL synthetic broth and then vortexed to mix. Discarded the rest of cryovial stock. • Incubated the tube at 36 ±1° C. for 24 hours (h). Briefly vortexed the 24 h culture prior to transfer. For this final subculture step, inoculated two 20×150 mm tubes containing 10 mL synthetic broth with […] of the 24 h synthetic broth culture. • Incubated 48 h at 36±1° C. Using a Vortex-style mixer, mixed synthetic broth test cultures 3-4 seconds and let stand 10 minutes at room temperature before continuing. Removed the upper portion of each culture, leaving behind any debris or clumps, and transferred to a sterile tube. Titrated the culture by plating on synthetic agar plates, and diluted to 5×10^8 Colony Forming Units (CFU) per mL.
(§7) High volume screening studies were conducted in some cases where only 4 organism-inoculated carriers were treated at specified concentrations of CTAB. Vortex-mixed the inoculum periodically during inoculation of the carriers. • Immediately spread the inoculum uniformly over the majority of the carrier surface using a sterile loop. […] Covered dish immediately and repeated operation until 64 carriers had been prepared for the test. Once all of the carriers had been inoculated, placed in incubator at 37° C. for 40 minutes until dry.
(§8) • After the test organisms were dried on the surface of the carrier, each carrier was sprayed with the respective disinfection formulae 10 times in 10 seconds at a distance of 30 cm. • Treatment interval was timed. Ten (10) minutes after each carrier had been sprayed by the disinfectant, the excess liquid was removed and the carriers were transferred in a sequentially timed fashion into the culture tubes containing 20 ml neutralizer (Letheen Broth with 0.07% Lecithin/0.5% Tween 80/0.1% Sodium Thiosulfate) to neutralize the disinfectant. […] The percentage of the treated carriers showing growth after 48 hours was recorded.

[6] = tested on: Pseudomonas aeruginosa ATCC 15442; experiment: as above; details: for Pseudomonas aeruginosa Growth Rate: 10 min contact
Source text: as §1, §6, §7, §8

[7] = tested on: Salmonella choleraesuis ATCC 10708; experiment: as above; details: 10 min contact
Description: as §5, §1
Method Adapted to the Preparation of Bacteria Cultures from −80° C. Freshly Recovered Stock. […]

With `CC(C)(C)CC(C)(C)c1ccc(OCCOCC[N+](C)(C)Cc2ccccc2)cc1` [BZT, Benzethonium chloride] the “Aspergillus niger Growth Rate” value ([1]; CMC + QAH, QAH 0.010%) was 50%, the “Aspergillus niger Growth Rate” value ([1]; CMC + QAH, QAH 0.100%) was 0% and the “Aspergillus niger Growth Rate” value ([1]; CMC + QAH, QAH 1.000%) was 0%. For the same molecule, the “Trichophyton mentagrophytes Growth Rate” value ([2]; CMC + QAH, QAH 0.010%) was 0%, the “Trichophyton mentagrophytes Growth Rate” value ([2]; CMC + QAH, QAH 0.100%) was 0% and the “Trichophyton mentagrophytes Growth Rate” value ([2]; CMC + QAH, QAH 1.000%) was 0%. The “Trichophyton mentagrophytes Growth Rate” value ([2]; Water + QAH, QAH 0.010%) was 0%, the “Trichophyton mentagrophytes Growth Rate” value ([2]; Water + QAH, QAH 0.100%) was 0% and the “Trichophyton mentagrophytes Growth Rate” value ([2]; Water + QAH, QAH 1.000%) was 0%. For the same molecule, the “Penicillium variable Growth Rate” value ([3]; CMC + QAH, QAH 0.010%) was 0%, the “Penicillium variable Growth Rate” value ([3]; CMC + QAH, QAH 0.100%) was 0% and the “Penicillium variable Growth Rate” value ([3]; CMC + QAH, QAH 1.000%) was 0%. For the same molecule, the “Penicillium variable Growth Rate” value ([3]; Water + QAH, QAH 0.010%) was 0%, the “Penicillium variable Growth Rate” value ([3]; Water + QAH, QAH 0.100%) was 0% and the “Penicillium variable Growth Rate” value ([3]; Water + QAH, QAH 1.000%) was 0%. The “effectiveness against the target organisms” value [4] was “remarkable effectiveness”, the “Staphylococcus aureus Growth Rate” value ([5]; CMC + QAH, QAH 0.010%) was 0% and the “Staphylococcus aureus Growth Rate” value ([5]; CMC + QAH, QAH 0.100%) was 0%. The “Staphylococcus aureus Growth Rate” value ([5]; CMC + QAH, QAH 1.000%) was 100%, the “Staphylococcus aureus Growth Rate” value ([5]; Water + QAH, QAH 0.010%) was 100% and the “Staphylococcus aureus Growth Rate” value ([5]; Water + QAH, QAH 0.100%) was 25%. For the same molecule, the “Staphylococcus aureus Growth Rate” value ([5]; Water + QAH, QAH 1.000%) was 0%, the “Pseudomonas aeruginosa Growth Rate” value ([6]; CMC + QAH, QAH 0.010%) was 0% and the “Pseudomonas aeruginosa Growth Rate” value ([6]; CMC + QAH, QAH 0.100%) was 0%. For the same molecule, the “Pseudomonas aeruginosa Growth Rate” value ([6]; CMC + QAH, QAH 1.000%) was 0%, the “Pseudomonas aeruginosa Growth Rate” value ([6]; Water + QAH, QAH 0.010%) was 100% and the “Pseudomonas aeruginosa Growth Rate” value ([6]; Water + QAH, QAH 0.100%) was 100%. For the same molecule, the “Pseudomonas aeruginosa Growth Rate” value ([6]; Water + QAH, QAH 1.000%) was 100%.
`CCCCCCCCCCCCCCCC[N+](C)(C)C.[Br-]` [CTAB, cetyltrimethylammonium bromide] was tested, and the “Salmonella choleraesuis Growth Rate” value ([7]; CTAB 0.0100% in water (no CMC)) was 100%, the “Salmonella choleraesuis Growth Rate” value ([7]; CTAB 0.1000% in water (no CMC)) was 0% and the “Aspergillus niger Growth Rate” value ([1]; CTAB 0.0010% in water (no CMC)) was 100%. For the same molecule, the “Aspergillus niger Growth Rate” value ([1]; CTAB 0.0100% in water (no CMC)) was 100%, the “Aspergillus niger Growth Rate” value ([1]; CTAB 0.0500% in water (no CMC)) was 100% and the “Aspergillus niger Growth Rate” value ([1]; CTAB 0.1000% in water (no CMC)) was 100%. For the same molecule, the “Trichophyton mentagrophytes Growth Rate” value ([2]; CTAB 0.0010% in water (no CMC)) was 0%, the “Trichophyton mentagrophytes Growth Rate” value ([2]; CTAB 0.0100% in water (no CMC)) was 0% and the “Trichophyton mentagrophytes Growth Rate” value ([2]; CTAB 0.0500% in water (no CMC)) was 0%. The “Penicillium variable Growth Rate” value ([3]; CTAB 0.0010% in water (no CMC)) was 100%, the “Penicillium variable Growth Rate” value ([3]; CTAB 0.0100% in water (no CMC)) was 0% and the “Penicillium variable Growth Rate” value ([3]; CTAB 0.0500% in water (no CMC)) was 0%. For the same molecule, the “Penicillium variable Growth Rate” value ([3]; CTAB 0.1000% in water (no CMC)) was 0%, the “Staphylococcus aureus Growth Rate” value ([5]; CTAB 0.0010% in water (no CMC)) was 100% and the “Staphylococcus aureus Growth Rate” value ([5]; CTAB 0.0100% in water (no CMC)) was 100%. For the same molecule, the “Staphylococcus aureus Growth Rate” value ([5]; CTAB 0.0500% in water (no CMC)) was 40%, the “Staphylococcus aureus Growth Rate” value ([5]; CTAB 0.1000% in water (no CMC)) was 40% and the “Pseudomonas aeruginosa Growth Rate” value ([6]; CTAB 0.0010% in water (no CMC)) was 100%. For the same molecule, the “Pseudomonas aeruginosa Growth Rate” value ([6]; CTAB 0.0100% in water (no CMC)) was 100%, the “Pseudomonas aeruginosa Growth Rate” value ([6]; CTAB 0.0500% in water (no CMC)) was 100% and the “efficacy against Pseudomonas” value ([6]; CTAB on its own in water, 0.05%) was “ineffective”.
